# Patent publication US20090149420A1, “NOVEL COMPOSITIONS AND USE THEREOF FOR THE TREATMENT, CO-TREATMENT OR PREVENTION OF INFLAMMATORY DISORDERS” (priority 2007, published 2009)
# Columns and labels:
# Assay type in all cases: cell-based
# [1] = system: murine macrophage cell line, RAW264.7; test: Inhibition of nitric oxide synthesis in LPS-stimulated RAW264.7 macrophages (Griess reaction); settings: single substance
# Method: The anti-inflammatory effect of a mixture of MA/HO (1:3 w/w) in combination with chondroitin sulfate was determined in cellular assays by measuring the inhibition of the synthesis of nitric oxide. Nitric oxide (NO) is a hallmark of inflammation in various chronic inflammatory diseases including various forms of arthritis, gastro-intestinal diseases and metabolic syndrome X.
# The effects on the inflammatory response were tested in cellular assays using a murine macrophage cell line, RAW264.7. The cells were purchased from ATCC (Manassas, Va., USA) and cultured in DMEM containing streptomycin/penicillin, non-essential amino acids and 10% fetal calf serum (FCS). In order to test a large range of concentration of a mixture of MA and HO (1:3) as well as mixtures thereof, cells (˜50,000/well) were seeded into flat-bottomed microtiter plates and cultured for one day. […] Concentrations of nitrite which was rapidly formed from nitric oxide released by cells were determined by the Griess reaction using sodium nitrite as standard. Briefly, 50 μl of supernatant was mixed with Griess reagent 1 (25 μL) and Griess reagent 2 (25 μL), centrifuged and the optical density at 540 nm determined. […] IC50 values for LPS-stimulated cells were calculated using a […] least-square fitting equation [y=A+((B−A)/(1+((C−x)̂D))] for best-fit curves (Excel fit software program). […]
# [2] = system: Aggrecan; test: Aggrecan gene expression (mRNA, RT-PCR) in normal human chondrocytes; settings: 500 mg/L; stim., 4 hrs; control set at 100%
# Method: (§1) The effect of a MA/HO (1:3 w/w) mixture in combination with chondroitin was tested on the expression of human aggrecan, collage I, collagen II, or chondrocyte transcription factors (SOX-6, -9) in vitro in normal human chondrocytes (derived from knee) (CC-2550; Cambrex, respectively). A control experiment without the compounds was done concomitantly to compare the expression of these genes (percentage expression of gene in controls was set to 100%). Normal human chondrocytes were cultured for 4 hours with MA/HO (1:3 w/w) (at 12.5 μmol/L), chondroitin (at 500 mg/L) as well as with both. The level of mRNA was determined by RT-PCR (Richard et al. Mol. Nutr. Food Res. 49, 431-442, 2005) and expressed relative to the level observed in cells cultured without the substances. The given values indicate the level of gene expression (in % of unstimulated cells [set at 100%] for anabolic and anti-catabolic genes; in % of IL1β-treated cells [set at 100%], for catabolic genes).
# [3] = system: SOX-9; test: SOX-9 gene expression (mRNA, RT-PCR) in normal human chondrocytes; settings: 500 mg/L; % of unstimulated cells set at 100%
# Method: as §1
# [4] = system: TIMP-1; test: TIMP-1 gene expression (mRNA, RT-PCR) in normal human chondrocytes; settings: 500 mg/L; unstim., 4 d; % of unstimulated cells set at 100%
# Method: as §1, with “Normal human chondrocytes were cultured for 4 hours with MA/HO (1:3 w/w) (at 12.5 μmol/L), chondroitin (at 500 mg/L) as well as with both.” left out
# [5] = system: MMP-2; test: MMP-2 gene expression (mRNA, RT-PCR) in normal human chondrocytes; settings: 500 mg/L; 4 d; % of IL1β-treated cells set at 100%
# Method: as §1, with “Normal human chondrocytes were cultured for 4 hours with MA/HO (1:3 w/w) (at 12.5 μmol/L), chondroitin (at 500 mg/L) as well as with both.” left out
# [6] = system: ADAMTS-5; test: ADAMTS-5 gene expression (mRNA, RT-PCR) in normal human chondrocytes; settings: 500 mg/L; stim, 4 hrs; % of IL1β-treated cells set at 100%
# Method: as §1
substance,measurement,setting,value
chondroitin sulfate,IC50 Nitric Oxide,"[1]; RAW264.7, LPS 1 μg/ml, 24 hours",>50 mg/L
same,"anti-inflammatory activity (inhibition of nitric oxide), in words","[1]; RAW264.7, LPS-stimulated",marginal anti-inflammatory
same,Aggrecan gene expression level,[2],62%
same,SOX-9 gene expression level,[3],147%
same,TIMP-1 gene expression level,[4],106%
same,MMP-2 gene expression level,[5],93%
same,ADAMTS-5 gene expression level,[6],107%
